Test results reported in US20260265184A1, “DEGRADABLE CROSSLINKING AGENT” (NAGASE CHEMTEX CORPORATION, priority 2023, published 2026).

Experiments:
Format in all cases: physicochemical
[1] = Degradation of the degradable cross-linked product on immersion in oxidizing agent solution
Description: The method for degrading a degradable cross-linked product according to the present invention includes bringing the degradable cross-linked product into contact with an aqueous solution containing an oxidizing agent at 100° C. or lower.
The conditions for bringing the degradable cross-linked product into contact with the aqueous solution containing the oxidizing agent include a temperature of 100° C. or lower, preferably of 15° C. to 50° C. The conditions preferably include a duration of 60 minutes or shorter, more preferably 10 minutes or shorter. If necessary, the cross-linked product may be shaken or stirred during the reaction with the oxidizing agent. Non-limiting specific examples of the method for bringing the degradable cross-linked product into contact with the aqueous solution containing the oxidizing agent include immersing the degradable cross-linked product in the aqueous solution containing the oxidizing agent, or spraying or adding dropwise the aqueous solution containing the oxidizing agent onto the degradable cross-linked product.
An amount of 0.3 g of the compound of formula (A), 0.1 g of poly(methylhydrosiloxane), and 4.0 mg of a platinum catalyst (trade name: CAT-PL-50T, available from Shin-Etsu Chemical Co., Ltd.) were added to 40 g of dimethyl sulfoxide to obtain a thermosetting composition solution. The solution was applied onto a glass substrate to give a cured film thickness of 0.1 μm, and then dried and cured at 150° C. for 10 minutes to obtain a degradable cross-linked product.

[2] = Solubility of the degradable cross-linked product (cured film) in water / organic solvent
Description: The solution was applied onto a glass substrate to give a cured film thickness of 0.1 μm, and then dried and cured at 150° C. for 10 minutes to obtain a degradable cross-linked product.

[3] = Solvent solubility evaluation of the degradable cross-linking agents; settings: for Solvent solubility, Isopropanol / Solvent solubility, Methanol / Solvent solubility, Methylisobutyl ketone / Solvent solubility, N-methylpyrrolidone / Solvent solubility, Propylene glycol monomethyl ether: 0.5 mL solvent added to 2 mg, visual, room temperature, then heat gun; for Solvent solubility, overall assessment in words: summary over the solvents of Tables 1 and 2
Excerpt: The degree of dissolution was visually observed. When an undissolved portion remained at room temperature, the mixture was sufficiently heated with a heat gun and then visually observed again. The scoring was as follows: 3 points for those that completely dissolved at room temperature; 2 points for those in which an undissolved portion remained at room temperature but completely dissolved after heating; 1 point for those in which a slight amount of an undissolved portion remained after heating; and 0 points for those in which a large amount of an undissolved portion remained after heating. Here, the degradable cross-linking agents in liquid form were evaluated for compatibility with the solvents.

[4] = Degradation of the compound on adding sodium hypochlorite aqueous solution; settings: 3% sodium hypochlorite aqueous solution added to the compound
[5] = cured film immersed in 3% sodium hypochlorite aqueous solution

Solubility of the degradable cross-linked product made with the compound ([2]; in water)	Solvent solubility, Isopropanol [3]	Solvent solubility, Methanol [3]	Solvent solubility, Methylisobutyl ketone [3]	Solvent solubility, N-methylpyrrolidone [3]	Solvent solubility, Propylene glycol monomethyl ether [3]	Solvent solubility, overall assessment in words [3]	Solubility of the degradable cross-linked product made with the compound ([2]; in isopropanol and water)	Solubility of the degradable cross-linked product made with the compound ([2]; in THF and water)	Structure (SMILES)	Degradation of the degradable cross-linked product made with the compound [1, 5]	Degradation of the compound by oxidizing agent [4]	Degradation of the degradable cross-linked product made with the compound ([1]; cured film immersed in 2-fold dilution of a 3% sodium hypochlorite aqueous solution with isopropanol)	Solvent solubility, overall assessment in words ([3]; listed as Example 8)	Solvent solubility, overall assessment in words ([3]; listed as Example 9)	Degradation of the degradable cross-linked product made with the compound ([1]; cured film immersed in 3-fold dilution of a 3% sodium hypochlorite aqueous solution with THE)
insoluble	0	0	0	0	0	poorly soluble in all the solvents			C=CCCC(=O)NNC(=O)CCCCCCCCC(=O)NNC(=O)OCC=C [Formula (A), reference compound]	foaming and removal of the product from the substrate were observed	foaming and degradation of the compound were observed				
insoluble	1	2	0	3	0				C=CCNC(=O)NNC(=O)CCCCCCCCC(=O)NNC(=O)NCC=C [Formula (B)]	foaming and removal of the product from the substrate were observed	foaming and degradation of the compound were observed				
insoluble	1	2	0	3	2				C=CCOC(=O)NNC(=O)NCCCCCCNC(=O)NNC(=O)OCC=C [Formula (C)]	foaming and removal of the product from the substrate were observed	foaming and degradation of the compound were observed				
insoluble	3	3	2	3	3				C=CCOC(=O)NNC(=O)CCCCCCCCC(=O)NNC(=O)OCC=C [Formula (D)]	foaming and removal of the product from the substrate were observed	foaming and degradation of the compound were observed				
insoluble	3	3	2	3	3				C=CCOC(=O)NNC(=O)CCCO [Formula (G)]	foaming and removal of the product from the substrate were observed	foaming and degradation of the compound were observed				
	0	3	0	3	0		insoluble		C=C(C)C(=O)OCCNC(=O)NNC(=O)c1cc(O)cc(O)c1 [Formula (I)]		foaming and degradation of the compound were observed	foaming and removal of the product from the substrate were observed	slightly less soluble than the compound of Example 3 but exhibited an acceptable level of solubility		
insoluble	1	1	0	1	0				O=C(CCS)NNC(=O)NCCCCCCNC(=O)N(CCCCCCNC(=O)NNC(=O)CCS)C(=O)NCCCCCCNC(=O)NNC(=O)CCS [Formula (J)]	foaming and removal of the product from the substrate were observed	foaming and degradation of the compound were observed			slightly less soluble than the compound of Example 3 but exhibited an acceptable level of solubility	
insoluble	1	2	1	3	3				C=CCOC(=O)NNC(=O)CCC(NC(=O)NNC(=O)CCCC(=O)NNC(=O)NC(CCC(=O)NNC(=O)OCC=C)C(=O)NNC(=O)OCC=C)C(=O)NNC(=O)OCC=C (stereo not drawn) [Formula (L)]	foaming and removal of the product from the substrate were observed	foaming and degradation of the compound were observed				
	0	3	0	3	3			insoluble	O=C(CCCCCOC(=O)NNC(=O)OCCO)NNC(=O)c1cccc(C(=O)NNC(=O)CCCCCOC(=O)NNC(=O)OCCO)c1 [Formula (M)]		foaming and degradation of the compound were observed				foaming and removal of the product from the substrate were observed
